CCOC(=O)c1ccc(N)cc1
solubility (mole fraction) (in cyclohexane, 298.15 K): 0.00107 | solubility (mole fraction) (in cyclohexane, 303.15 K): 0.00134 | solubility (mole fraction) (in cyclohexane, 308.15 K): 0.00185 | solubility (mole fraction) (in cyclohexane, 313.15 K): 0.00225 | solubility (mole fraction) (in isopropyl myristate, 298.15 K): 0.0637 | solubility (mole fraction) (in isopropyl myristate, 303.15 K): 0.0764 | solubility (mole fraction) (in isopropyl myristate, 308.15 K): 0.102 | solubility (mole fraction) (in isopropyl myristate, 313.15 K): 0.121 | solubility (mole fraction) (in n-octanol, 298.15 K): 0.0628 | solubility (mole fraction) (in n-octanol, 303.15 K): 0.0753 | solubility (mole fraction) (in n-octanol, 308.15 K): 0.0916 | solubility (mole fraction) (in n-octanol, 313.15 K): 0.113 | solubility (mole fraction) (in water, 298.15 K): 0.000105 | solubility (mole fraction) (in water, 303.15 K): 0.000126 | solubility (mole fraction) (in water, 308.15 K): 0.000159 | solubility (mole fraction) (in water, 313.15 K): 0.000186

Source: BigSolDB 2.1
